According to patent US20230113802A1, “COMPOSITION AND METHOD TO PREPARE LONG-ACTING INJECTABLE SUSPENSION CONTAINING MULTIPLE CANCER DRUGS” (University of Washington, priority 2020, published 2023):

Assay: Pharmacokinetic study of GT in DcNPs compared to CrEL (Example 2), plasma G, T and dFdU
Assay type: in vivo, BALB/c mice
Excerpt: Drugs extracted from biological matrices such as plasma or tissue homogenates were quantified by a Shimadzu HPLC system coupled to a 3200 QTRAP mass spectrometer (Applied Biosystems, Grand Island, N.Y.). The HPLC system consisted of two Shimadzu LC-20A pumps, a DGU-20A5 degasser, and a Shimadzu SIL-20AC HT autosampler. The mass spectrometer was equipped with an electrospray ionization (ESI) TurbolonSpray source. The system was operated with Analyst software, version 1.5.2 (ABSciex, Framingham, Mass.). Chromatographic separation of G and T was achieved using a Synergi column (100×2.0 mm; 4-μm particle size) (Phenomenex, Torrance, Calif.) with an inline C8 guard column (4.0×2.0 mm) also from Phenomenex. The flow rate was set to 0.5 mL/min with a 5 μl sample injection volume. The mobile phase for separation consisted of pump A (20 mM Ammonium Acetate in water) and B (Reagent Alcohol). […] The needle was washed with isopropanol after each injection. Analytes were monitored using multiple-reaction monitoring (MRM) for positive ions.
Statistical comparisons were performed using 2-sided t-tests with Welch's correction for unequal variances. Significance probability α was set at 0.05. Pharmacokinetic parameters from non-compartmental analysis were calculated using the trapezoidal rule and relevant pharmacokinetic equations shown in Table 3.

plasma dFdU times higher than G at 3 hours (CrEL control dosage form): 50 times
plasma dFdU times lower than G at 3 hours (GT DcNP dosage form): 3.4 times
plasma concentration within 15 minutes (after GT in CrEL control dosage form IV, mice): 11836.7 ng/mL
concentration at 3 h (female, BALB/c, mouse, plasma, intravenous, after control CrEL dosing, 50/5 mg/kg G/T IV, mice): 4340 ng/mL
Structure (SMILES): O=c1ccn([C@@H]2O[C@H](CO)[C@@H](O)C2(F)F)c(=O)[nH]1 [dFdU, 2′,2′-difluoro-deoxyuridine]
